Values belong to the molecule of their own block, whether it stands above or below them.
Experiments:
[1] = biological target: T1, High affinity choline transporter 1 (Homo sapiens, UniProt Q9GZV3); assay: Inhibition of [3H]choline uptake at human choline transporter expressed in HEK293 cells preincubated for 15 mins followed by [3H]choline addition measured after 10 to 15 mins by scintillation proximity assay; type: cell-based
T1 sequence (Q9GZV3 whole entry): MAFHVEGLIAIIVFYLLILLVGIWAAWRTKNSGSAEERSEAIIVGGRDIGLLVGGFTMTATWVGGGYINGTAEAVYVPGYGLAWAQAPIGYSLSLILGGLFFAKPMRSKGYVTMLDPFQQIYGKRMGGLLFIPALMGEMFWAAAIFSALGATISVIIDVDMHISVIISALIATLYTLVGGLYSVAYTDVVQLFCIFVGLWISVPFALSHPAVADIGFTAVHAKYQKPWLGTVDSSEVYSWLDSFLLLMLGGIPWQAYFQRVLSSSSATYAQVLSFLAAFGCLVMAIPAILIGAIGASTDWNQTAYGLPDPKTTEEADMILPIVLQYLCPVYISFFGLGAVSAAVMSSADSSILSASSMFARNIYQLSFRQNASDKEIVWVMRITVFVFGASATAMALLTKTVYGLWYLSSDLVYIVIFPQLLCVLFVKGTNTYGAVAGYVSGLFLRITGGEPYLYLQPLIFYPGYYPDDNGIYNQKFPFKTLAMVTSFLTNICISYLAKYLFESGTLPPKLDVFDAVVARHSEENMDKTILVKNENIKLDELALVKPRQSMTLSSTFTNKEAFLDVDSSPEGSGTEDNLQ

[2] = biological target: T2, High affinity choline transporter 1 (Homo sapiens) (UniProt Q9GZV3); assay: Inhibition of [3H]choline uptake at human choline transporter expressed in HEK293 cells at 5 uM preincubated for 15 mins followed by [3H]choline addition measured after 10 to 15 mins by scintillation proximity assay relative to control; type: cell-based
T2 sequence (whole entry): T1 sequence (Q9GZV3 whole entry)

Rattus norvegicus [3] = assay: Cognitive enhancing effect in ip dosed rat assessed as increase in recognition index treated 30 mins prior test measured after 24 hrs by novel object recognition test relative to vehicle-treated control; type: functional, organism-based
[4] = Fraction unbound in human plasma after 4 hrs by LC-MS/MS based equilibrium dialysis method; type: ADME, cell-free
[5] = Drug uptake in cannulated Sprague-Dawley rat brain at 1 mg/kg, iv administered twice at 24 hrs interval followed by 0.75 min of isoflurane treatment post 15 min second dose measured after […] by LC-MS/MS analysis; type: ADME, organism-based; conditions: read-out: Drug uptake
[6] = Fraction unbound in rat brain after 4 hrs by LC-MS/MS based equilibrium dialysis method; type: ADME, tissue-based
[7] = Ratio of drug level in cannulated Sprague-Dawley rat brain to plasma at 1 mg/kg, iv; type: ADME, organism-based
[8] = Plasma concentration in cannulated Sprague-Dawley rat at 1 mg/kg, iv after […] by LC-MS/MS analysis; type: ADME, organism-based
[9] = Intrinsic clearance in human liver microsomes at 1 uM preincubated with microsomes followed by NADPH addition measured up to 45 mins by LC-MS/MS analysis; type: ADME; conditions: read-out: CLH
[10] = Fraction unbound in rat plasma after 4 hrs by LC-MS/MS based equilibrium dialysis method; type: ADME, cell-free
[11] = Half life in cannulated Sprague-Dawley rat plasma at 1 mg/kg, iv by LC-MS/MS analysis; type: ADME, organism-based
[12] = Intrinsic clearance in rat liver microsomes at 1 uM preincubated with microsomes followed by NADPH addition measured up to 45 mins by LC-MS/MS analysis; type: ADME; conditions: read-out: CLH
[13] = Volume of distribution at steady state in cannulated Sprague-Dawley rat at 1 mg/kg, iv up to 24 hrs by LC-MS/MS analysis; type: ADME, organism-based; conditions: in vivo
Rattus norvegicus [14] = assay: Cognitive enhancing effect in rat assessed as increase in recognition index at 10 mg/kg, ip treated 30 mins prior test measured after 24 hrs by novel object recognition test relative to vehicle-treated control; type: functional
Rattus norvegicus [15] = assay: Toxicity in rat at >10 mg/kg, ip; type: organism-based; conditions: in vivo
Cytochrome P450 1A2 = biological target: T3, Cytochrome P450 1A2 (Homo sapiens, UniProt P05177); assay: Inhibition of human CYP1A2; type: ADME
T3 sequence (P05177 whole entry): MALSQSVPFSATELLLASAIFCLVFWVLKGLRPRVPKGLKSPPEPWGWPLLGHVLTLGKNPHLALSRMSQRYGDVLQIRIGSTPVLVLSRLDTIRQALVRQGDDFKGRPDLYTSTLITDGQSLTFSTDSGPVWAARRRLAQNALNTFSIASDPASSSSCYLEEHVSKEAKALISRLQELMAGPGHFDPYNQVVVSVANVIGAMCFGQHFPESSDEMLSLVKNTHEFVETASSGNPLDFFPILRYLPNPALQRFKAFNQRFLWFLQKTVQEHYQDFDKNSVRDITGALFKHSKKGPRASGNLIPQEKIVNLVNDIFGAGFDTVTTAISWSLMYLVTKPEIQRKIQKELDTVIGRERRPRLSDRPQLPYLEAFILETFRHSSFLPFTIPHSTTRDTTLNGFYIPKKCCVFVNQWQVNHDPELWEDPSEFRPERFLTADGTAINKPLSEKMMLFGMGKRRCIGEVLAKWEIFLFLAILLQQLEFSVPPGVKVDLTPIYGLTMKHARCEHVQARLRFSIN

Cytochrome P450 3A4 = Cytochrome P450 3A4 (Homo sapiens, UniProt P08684); assay: Inhibition of human CYP3A4; type: ADME
Cytochrome P450 3A4, sequence (P08684 whole entry): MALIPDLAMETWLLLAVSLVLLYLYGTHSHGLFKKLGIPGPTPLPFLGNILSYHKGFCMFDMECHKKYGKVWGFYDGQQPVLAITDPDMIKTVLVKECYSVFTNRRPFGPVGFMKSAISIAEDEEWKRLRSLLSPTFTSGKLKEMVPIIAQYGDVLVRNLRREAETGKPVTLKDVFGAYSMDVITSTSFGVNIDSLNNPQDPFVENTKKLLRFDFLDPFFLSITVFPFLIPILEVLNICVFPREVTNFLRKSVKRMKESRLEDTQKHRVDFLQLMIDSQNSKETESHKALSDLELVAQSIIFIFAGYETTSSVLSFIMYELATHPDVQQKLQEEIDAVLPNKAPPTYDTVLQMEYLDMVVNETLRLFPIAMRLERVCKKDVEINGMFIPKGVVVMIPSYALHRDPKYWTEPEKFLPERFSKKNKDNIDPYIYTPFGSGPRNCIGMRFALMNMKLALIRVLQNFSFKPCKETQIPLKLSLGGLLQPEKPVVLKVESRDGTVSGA

Cytochrome P450 2C9 = Cytochrome P450 2C9 (Homo sapiens, UniProt P11712); assay: Inhibition of human CYP2C9; type: ADME
Cytochrome P450 2C9, sequence (P11712 whole entry): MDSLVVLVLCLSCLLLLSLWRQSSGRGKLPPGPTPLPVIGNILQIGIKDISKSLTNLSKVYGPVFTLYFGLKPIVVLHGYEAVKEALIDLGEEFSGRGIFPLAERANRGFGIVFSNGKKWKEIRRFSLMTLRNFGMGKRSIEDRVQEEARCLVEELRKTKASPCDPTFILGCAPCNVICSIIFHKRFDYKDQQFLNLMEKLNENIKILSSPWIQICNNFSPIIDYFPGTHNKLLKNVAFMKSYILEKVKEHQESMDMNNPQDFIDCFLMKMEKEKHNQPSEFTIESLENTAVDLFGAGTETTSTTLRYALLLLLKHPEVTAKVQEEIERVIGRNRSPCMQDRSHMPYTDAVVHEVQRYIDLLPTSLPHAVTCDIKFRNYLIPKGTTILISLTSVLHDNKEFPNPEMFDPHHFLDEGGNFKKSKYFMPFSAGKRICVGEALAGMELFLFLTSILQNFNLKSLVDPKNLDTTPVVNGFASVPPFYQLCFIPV

[16] = Ratio of unbound concentration in cannulated Sprague-Dawley rat brain to plasma at 1 mg/kg, iv; type: ADME, organism-based; conditions: read-out: K(p,uu,brain)
[17] = Plasma clearance in cannulated Sprague-Dawley rat at 1 mg/kg, iv up to 24 hrs by LC-MS/MS analysis; type: ADME, organism-based
Rattus norvegicus [18] = assay: Cognitive enhancing effect in rat assessed as increase in recognition index at 3 mg/kg, ip treated 30 mins prior test measured after 24 hrs by novel object recognition test relative to vehicle-treated control; type: functional
Cytochrome P450 2D6 = Cytochrome P450 2D6 (Homo sapiens, UniProt P10635); assay: Inhibition of human CYP2D6; type: ADME
Cytochrome P450 2D6, sequence (P10635 whole entry): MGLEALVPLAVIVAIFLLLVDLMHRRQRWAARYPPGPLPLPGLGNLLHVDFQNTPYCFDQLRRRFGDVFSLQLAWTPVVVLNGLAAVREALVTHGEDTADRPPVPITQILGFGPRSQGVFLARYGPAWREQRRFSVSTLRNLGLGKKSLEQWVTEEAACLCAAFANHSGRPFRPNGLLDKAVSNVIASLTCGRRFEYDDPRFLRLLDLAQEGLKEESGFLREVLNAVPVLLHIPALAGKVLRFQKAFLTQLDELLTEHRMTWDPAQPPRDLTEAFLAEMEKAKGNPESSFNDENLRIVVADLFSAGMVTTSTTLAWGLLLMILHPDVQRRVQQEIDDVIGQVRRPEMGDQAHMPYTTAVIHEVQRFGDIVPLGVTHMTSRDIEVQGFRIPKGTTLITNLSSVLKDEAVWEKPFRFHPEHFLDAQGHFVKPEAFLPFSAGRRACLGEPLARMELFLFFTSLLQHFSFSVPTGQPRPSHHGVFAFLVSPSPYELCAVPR

Compound: CC(C)c1cc(CNC(=O)c2ccc(C(F)(F)F)c(OC3CCN(C)CC3)c2)on1
IC50 [1]: > 10000 nM
inhibition [2]: > 50%

Compound: COc1cc2c(cc1OC)C(=O)C(CC1CCN(Cc3ccccc3)CC1)C2 (stereo not drawn)
Activity (Rattus norvegicus [3]): Dose-dependent effect

Compound: COc1ccc(C(=O)NCc2cc(C(C)C)no2)cc1OC1CCN(C)CC1
Fu ([4]; 4 h): 0.67
concentration at […] [5]: 23.4 ng/g
fraction unbound at 4 h [6]: 0.36
Kp [7]: 0.18
concentration at […] [8]: 129 ng/mL
CLint scaled at 1 µM [9]: 10.4 mL/min/kg
Fu ([10]; 4 h): 0.35
t1/2 ([11]; in vivo): 0.55 h
CLint scaled at 1 µM [12]: 95 mL/min/kg
Vdss ([13]; 24 h): 3.2 L/kg

Second part, led by results:

IC50 [1]: 1840 nM
inhibition [2]: > 50%
Compound: CC(C)c1cc(CNC(=O)c2cccc(OC3CCN(C(C)C)CC3)c2)on1

IC50 [1]: 3350 nM
inhibition [2]: > 50%
Compound: CC(C)c1cc(CNC(=O)c2ccc(C#N)c(OC3CCN(C)CC3)c2)on1

IC50 [1]: 467 nM
inhibition [2]: > 50%
Compound: CC(C)c1cc(CNC(=O)c2ccc(F)c(OC3CCN(C)CC3)c2)on1

IC50 [1]: 640 nM
inhibition [2]: > 50%
Compound: CC(C)c1cc(CNC(=O)c2cccc(OC3CCN(C)CC3)c2)on1

IC50 [1]: 270 nM
fraction unbound at 4 h [4]: 0.31
concentration at […] [5]: 16.3 ng/g
fraction unbound at 4 h [6]: 0.65
Kp [7]: 0.34
concentration at […] [8]: 47.2 ng/mL
IC50 (Cytochrome P450 1A2): > 30000 nM
IC50 (Cytochrome P450 3A4): > 30000 nM
CLint scaled at 1 µM [9]: 10.4 mL/min/kg
IC50 (Cytochrome P450 2C9): > 30000 nM
Kp uu [16]: 0.71
clearance [17]: 1.54 mL/min/kg
fraction unbound at 4 h [10]: 0.19
inhibition [2]: > 50%
half-life ([11]; Sprague-Dawley, plasma): 1.95 h
CLint scaled at 1 µM [12]: 42.5 mL/min/kg
Vd ([13]; Sprague-Dawley, read-out: Vdss): 0.3 L/kg
IC50 (Cytochrome P450 2D6): > 30000 nM
Compound: CC(C)c1cc(CNC(=O)c2ccc(Cl)c(OC3CCN(C)CC3)c2)on1
Activity (Rattus norvegicus [14]): 24%
Activity (Rattus norvegicus [15]): Toxic
Activity (Rattus norvegicus [3]): Dose-dependent effect
Activity (Rattus norvegicus [18]): 28%

— ChEMBL document CHEMBL3860045 (Bioorg Med Chem Lett, 2016)
